Measured values from patent publication US12605449B2, “Drug-clay mineral complex containing phospholipid and oral administration composition including same” (Korea Institute of Geoscience and Mineral Resources, priority 2020, dated 2026).

Experiments:
Assay type in all cases: physicochemical
[1] = Ciprofloxacin adsorption to bentonite (pH and concentration dependence)
[2] = Ciprofloxacin release test using a dialysis membrane (FaSSGF, FaSSIF, FaSSCoF); conditions: complex weight ratio 1:5
Description: The release pattern according to the pH of the complex was confirmed through a release test using a dialysis membrane.

[3] = Carbamazepine drug release test according to pH; conditions: regardless of pH
Description: In addition, a pattern released at a constant rate at all pHs was shown, and since the release rate of carbamazepine is higher at high pH, it may be inferred that the drug may be easily released from the lower digestive tract.

[4] = Camptothecin adsorption to bentonite (supernatant concentration); conditions: camptothecin 0.25 mg/mL in 1 N HCl
Experimental: The concentration of camptothecin (Tokyo Chemical Industry, TCI) was made at 0.25 mg/mL using a 100% 1 N HCl solvent and the drug and bentonite reacted with each other at various ratios shown in Table 6 below, and then the drug amount adsorbed to bentonite was indirectly measured by measuring the drug concentration of the supernatant.

## O=C(O)c1cn(C2CC2)c2cc(N3CCNCC3)c(F)cc2c1=O [ciprofloxacin, 1-cyclopropyl-6-fluoro-1,4-dihydro-4-oxo-7-(1-piperazinyl)-quinoline-3-carboxylic acid]
[1]; bentonite 0.5 mg/mL, ciprofloxacin 50-500 μg/mL, pH 1
  amount of drug adsorption per bentonite mass: ≤ 300 mg/g
[1]; ciprofloxacin 0.5 mg/mL, bentonite 5 mg/mL, pH 1 to 10, decreased above pH 7
  adsorption amount of ciprofloxacin according to pH: high adsorption
[1]; weight ratio of ciprofloxacin and bentonite 1:5
  drug adsorption rate: ~100%
[2]
  release pattern in FaSSGF, FaSSIF, FaSSCoF: rapidly released under FaSSGF

## NC(=O)N1c2ccccc2C=Cc2ccccc21 [Carbamazepine, 5H-dibenzo[b,f]azepine-5-carboxamide]
[3]
  time within which most of the drug was released: ≤ 2 h

## CC[C@@]1(O)C(=O)OCc2c1cc1n(c2=O)Cc2cc3ccccc3nc2-1 [Camptothecin, (S)-4-ethyl-4-hydroxy-1H-pyrano-[3′,4′: 6,7]indolizinol[1,2-b]quinoline-3,14 (4H, 12H)-dione]
[4]
  Supernatant concentration: 49.7 ± 0.3 µg/mL
